Assays:
Type in all cases: in vivo
[1] = system: SETVI, Green foxtail, Setaria viridis, (L.)Beau; experiment: Postemergence herbicidal evaluation (Example 147); conditions: rating scale 0-9, two to three weeks after treatment
Procedure, shortened: (§1)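 Plants at about two weeks from sowing received a foliar spray of test compound equivalent to roughly 0.016 to 0.032 kg per hectare. The carrier was 80/20 acetone/water containing 1.0% methylated seed oil. Injury was scored on a 0-9 visual scale two to three weeks later.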

[2] = system: ALOMY, Blackgrass, Alopecurus myosuroides; experiment: Postemergence herbicidal evaluation (Example 147); conditions: rating scale 0-9, two to three weeks after treatment
Procedure, shortened: as §1

[3] = system: AMBEL, Ragweed, Common, Ambrosia artemiisifolia, L.; experiment: Postemergence herbicidal evaluation (Example 147); conditions: rating scale 0-9, two to three weeks after treatment
Procedure, shortened: as §1

[4] = system: DIGSA, Crabgrass, (Hairy) L, Digitaria sanguinalis, (L)Scop; experiment: Postemergence herbicidal evaluation (Example 147); conditions: rating scale 0-9, two to three weeks after treatment
Procedure, shortened: as §1

[5] = system: ZEAMX, Field corn, Zea mays L.; experiment: Postemergence herbicidal evaluation (Example 147); conditions: rating scale 0-9, two to three weeks after treatment
Procedure, shortened: as §1

[6] = system: IPOHE, Morningglory, Ivyleaf, Ipomoea hederacea, (L)Jacq.; experiment: Postemergence herbicidal evaluation (Example 147); conditions: rating scale 0-9, two to three weeks after treatment
Procedure, shortened: as §1

[7] = system: XANST, Cocklebur, Xanthium strumariam; experiment: Postemergence herbicidal evaluation (Example 147); conditions: rating scale 0-9, two to three weeks after treatment
Procedure, shortened: as §1

[8] = system: GLXMA, Soybean, Glycine max, (L.) Merr.; experiment: Postemergence herbicidal evaluation (Example 147); conditions: rating scale 0-9, two to three weeks after treatment
Procedure, shortened: as §1

[9] = system: ABUTH, Velvetleaf, Abutilon theophrasti, Medic.; experiment: Postemergence herbicidal evaluation (Example 147); conditions: rating scale 0-9, two to three weeks after treatment
Procedure, shortened: as §1

[10] = system: CHEAL, Lambsquarters, Chenopodium album, L. Common; experiment: Postemergence herbicidal evaluation (Example 147); conditions: rating scale 0-9, two to three weeks after treatment
Procedure, shortened: as §1

[11] = system: ECHCG, Barnyardgrass, Echinochloa crusgalli, (L.)Beau; experiment: Postemergence herbicidal evaluation (Example 147); conditions: rating scale 0-9, two to three weeks after treatment
Procedure, shortened: as §1

[12] = system: TRZAW, Winter wheat, Tritium Aestivum, L. (Winter); experiment: Postemergence herbicidal evaluation (Example 147); conditions: rating scale 0-9, two to three weeks after treatment
Procedure, shortened: as §1

[13] = system: SETVI, Green foxtail, Setaria viridis, (L.)Beau; experiment: Preemergence herbicidal evaluation (Example 148); conditions: rating scale 0-9, two to four weeks after treatment
Procedure, shortened: (§2)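 Herbicidal effect is a visual score comparing treated plants with a control for stand, vigor, size, malformation and chlorosis. Treatment was a preemergence spray (~0.125–0.250 kg/ha, aqueous acetone); assessment came 2–4 weeks later.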

[14] = system: ALOMY, Blackgrass, Alopecurus myosuroides; experiment: Preemergence herbicidal evaluation (Example 148); conditions: rating scale 0-9, two to four weeks after treatment
Procedure, shortened: as §2

[15] = system: AMBEL, Ragweed, Common, Ambrosia artemiisifolia, L.; experiment: Preemergence herbicidal evaluation (Example 148); conditions: rating scale 0-9, two to four weeks after treatment
Procedure, shortened: as §2

[16] = system: DIGSA, Crabgrass, (Hairy) L, Digitaria sanguinalis, (L)Scop; experiment: Preemergence herbicidal evaluation (Example 148); conditions: rating scale 0-9, two to four weeks after treatment
Procedure, shortened: as §2

[17] = system: ZEAMX, Field corn, Zea mays L.; experiment: Preemergence herbicidal evaluation (Example 148); conditions: rating scale 0-9, two to four weeks after treatment
Procedure, shortened: as §2

[18] = system: IPOHE, Morningglory, Ivyleaf, Ipomoea hederacea, (L)Jacq.; experiment: Preemergence herbicidal evaluation (Example 148); conditions: rating scale 0-9, two to four weeks after treatment
Procedure, shortened: as §2

[19] = system: XANST, Cocklebur, Xanthium strumariam; experiment: Preemergence herbicidal evaluation (Example 148); conditions: rating scale 0-9, two to four weeks after treatment
Procedure, shortened: as §2

[20] = system: GLXMA, Soybean, Glycine max, (L.) Merr.; experiment: Preemergence herbicidal evaluation (Example 148); conditions: rating scale 0-9, two to four weeks after treatment
Procedure, shortened: as §2

[21] = system: ABUTH, Velvetleaf, Abutilon theophrasti, Medic.; experiment: Preemergence herbicidal evaluation (Example 148); conditions: rating scale 0-9, two to four weeks after treatment
Procedure, shortened: as §2

[22] = system: CHEAL, Lambsquarters, Chenopodium album, L. Common; experiment: Preemergence herbicidal evaluation (Example 148); conditions: rating scale 0-9, two to four weeks after treatment
Procedure, shortened: as §2

[23] = system: ECHCG, Barnyardgrass, Echinochloa crusgalli, (L.)Beau; experiment: Preemergence herbicidal evaluation (Example 148); conditions: rating scale 0-9, two to four weeks after treatment
Procedure, shortened: as §2

[24] = system: TRZAW, Winter wheat, Tritium Aestivum, L. (Winter); experiment: Preemergence herbicidal evaluation (Example 148); conditions: rating scale 0-9, two to four weeks after treatment
Procedure, shortened: as §2

CCN(CC)S(=O)(=O)NC(=O)c1cc(-n2c(=O)cc(C(F)(F)F)n(C)c2=O)c(F)cc1Cl [Example 68]
Postemergence herbicidal rating SETVI ([1]; rate 0.016 kg/ha): 7.0 | Postemergence herbicidal rating SETVI ([1]; rate 0.032 kg/ha): 9.0 | Postemergence herbicidal rating ALMOY ([2]; rate 0.016 kg/ha): 1.0 | Postemergence herbicidal rating ALMOY ([2]; rate 0.032 kg/ha): 1.0 | Postemergence herbicidal rating AMBEL ([3]; rate 0.016 kg/ha): 9.0 | Postemergence herbicidal rating AMBEL ([3]; rate 0.032 kg/ha): 9.0 | Postemergence herbicidal rating DIGSA ([4]; rate 0.016 kg/ha): 6.0 | Postemergence herbicidal rating DIGSA ([4]; rate 0.032 kg/ha): 6.0 | Postemergence herbicidal rating ZEAMX ([5]; rate 0.016 kg/ha): 7.0 | Postemergence herbicidal rating ZEAMX ([5]; rate 0.032 kg/ha): 7.5 | Postemergence herbicidal rating IPOHE ([6]; rate 0.016 kg/ha): 9.0 | Postemergence herbicidal rating IPOHE ([6]; rate 0.032 kg/ha): 9.0 | Postemergence herbicidal rating XANST ([7]; rate 0.016 kg/ha): 9.0 | Postemergence herbicidal rating XANST ([7]; rate 0.032 kg/ha): 9.0 | Postemergence herbicidal rating GLXMA ([8]; rate 0.016 kg/ha): 8.5 | Postemergence herbicidal rating GLXMA ([8]; rate 0.032 kg/ha): 8.5 | Postemergence herbicidal rating ABUTH ([9]; rate 0.016 kg/ha): 9.0 | Postemergence herbicidal rating ABUTH ([9]; rate 0.032 kg/ha): 9.0 | Postemergence herbicidal rating CHEAL ([10]; rate 0.016 kg/ha): 8.0 | Postemergence herbicidal rating CHEAL ([10]; rate 0.032 kg/ha): 8.0 | Postemergence herbicidal rating ECHCG ([11]; rate 0.016 kg/ha): 8.0 | Postemergence herbicidal rating ECHCG ([11]; rate 0.032 kg/ha): 8.0 | Postemergence herbicidal rating TRZAW ([12]; rate 0.016 kg/ha): 5.0 | Postemergence herbicidal rating TRZAW ([12]; rate 0.032 kg/ha): 5.5 | Preemergence herbicidal rating SETVI ([13]; rate 0.125 kg/ha): 4.0 | Preemergence herbicidal rating SETVI ([13]; rate 0.25 kg/ha): 8.0 | Preemergence herbicidal rating ALMOY ([14]; rate 0.125 kg/ha): 0.0 | Preemergence herbicidal rating ALMOY ([14]; rate 0.25 kg/ha): 0.0 | Preemergence herbicidal rating AMBEL ([15]; rate 0.125 kg/ha): 9.0 | Preemergence herbicidal rating AMBEL ([15]; rate 0.25 kg/ha): 9.0 | Preemergence herbicidal rating DIGSA ([16]; rate 0.125 kg/ha): 3.0 | Preemergence herbicidal rating DIGSA ([16]; rate 0.25 kg/ha): 4.0 | Preemergence herbicidal rating ZEAMX ([17]; rate 0.125 kg/ha): 1.0 | Preemergence herbicidal rating ZEAMX ([17]; rate 0.25 kg/ha): 2.0 | Preemergence herbicidal rating IPOHE ([18]; rate 0.125 kg/ha): 9.0 | Preemergence herbicidal rating IPOHE ([18]; rate 0.25 kg/ha): 9.0 | Preemergence herbicidal rating XANST ([19]; rate 0.125 kg/ha): 9.0 | Preemergence herbicidal rating XANST ([19]; rate 0.25 kg/ha): 9.0 | Preemergence herbicidal rating GLXMA ([20]; rate 0.125 kg/ha): 7.0 | Preemergence herbicidal rating GLXMA ([20]; rate 0.25 kg/ha): 8.0 | Preemergence herbicidal rating ABUTH ([21]; rate 0.125 kg/ha): 9.0 | Preemergence herbicidal rating ABUTH ([21]; rate 0.25 kg/ha): 9.0 | Preemergence herbicidal rating CHEAL ([22]; rate 0.125 kg/ha): 8.0 | Preemergence herbicidal rating CHEAL ([22]; rate 0.25 kg/ha): 8.0 | Preemergence herbicidal rating ECHCG ([23]; rate 0.125 kg/ha): 3.0 | Preemergence herbicidal rating ECHCG ([23]; rate 0.25 kg/ha): 4.0 | Preemergence herbicidal rating TRZAW ([24]; rate 0.125 kg/ha): 0.0 | Preemergence herbicidal rating TRZAW ([24]; rate 0.25 kg/ha): 0.0

C#CCN(C)S(=O)(=O)NC(=O)c1cc(-n2c(=O)cc(C(F)(F)F)n(C)c2=O)c(F)cc1Cl [Example 57]
Postemergence herbicidal rating SETVI ([1]; rate 0.016 kg/ha): 1.0 | Postemergence herbicidal rating SETVI ([1]; rate 0.032 kg/ha): 3.0 | Postemergence herbicidal rating ALMOY ([2]; rate 0.016 kg/ha): 0.0 | Postemergence herbicidal rating ALMOY ([2]; rate 0.032 kg/ha): 1.0 | Postemergence herbicidal rating AMBEL ([3]; rate 0.016 kg/ha): 1.0 | Postemergence herbicidal rating AMBEL ([3]; rate 0.032 kg/ha): 2.0 | Postemergence herbicidal rating DIGSA ([4]; rate 0.016 kg/ha): 1.0 | Postemergence herbicidal rating DIGSA ([4]; rate 0.032 kg/ha): 2.0 | Postemergence herbicidal rating ZEAMX ([5]; rate 0.016 kg/ha): 2.0 | Postemergence herbicidal rating ZEAMX ([5]; rate 0.032 kg/ha): 5.0 | Postemergence herbicidal rating IPOHE ([6]; rate 0.016 kg/ha): 6.0 | Postemergence herbicidal rating IPOHE ([6]; rate 0.032 kg/ha): 4.0 | Postemergence herbicidal rating XANST ([7]; rate 0.016 kg/ha): 2.0 | Postemergence herbicidal rating XANST ([7]; rate 0.032 kg/ha): 3.0 | Postemergence herbicidal rating GLXMA ([8]; rate 0.016 kg/ha): 6.0 | Postemergence herbicidal rating GLXMA ([8]; rate 0.032 kg/ha): 6.5 | Postemergence herbicidal rating ABUTH ([9]; rate 0.016 kg/ha): 2.0 | Postemergence herbicidal rating ABUTH ([9]; rate 0.032 kg/ha): 5.0 | Postemergence herbicidal rating CHEAL ([10]; rate 0.016 kg/ha): 1.0 | Postemergence herbicidal rating CHEAL ([10]; rate 0.032 kg/ha): 2.0 | Postemergence herbicidal rating ECHCG ([11]; rate 0.016 kg/ha): 1.0 | Postemergence herbicidal rating ECHCG ([11]; rate 0.032 kg/ha): 2.0 | Postemergence herbicidal rating TRZAW ([12]; rate 0.016 kg/ha): 2.0 | Postemergence herbicidal rating TRZAW ([12]; rate 0.032 kg/ha): 2.5 | Preemergence herbicidal rating SETVI ([13]; rate 0.125 kg/ha): 0.0 | Preemergence herbicidal rating SETVI ([13]; rate 0.25 kg/ha): 1.0 | Preemergence herbicidal rating ALMOY ([14]; rate 0.125 kg/ha): 0.0 | Preemergence herbicidal rating ALMOY ([14]; rate 0.25 kg/ha): 0.0 | Preemergence herbicidal rating AMBEL ([15]; rate 0.125 kg/ha): 2.0 | Preemergence herbicidal rating AMBEL ([15]; rate 0.25 kg/ha): 2.0 | Preemergence herbicidal rating DIGSA ([16]; rate 0.125 kg/ha): 1.0 | Preemergence herbicidal rating DIGSA ([16]; rate 0.25 kg/ha): 3.0 | Preemergence herbicidal rating ZEAMX ([17]; rate 0.125 kg/ha): 0.0 | Preemergence herbicidal rating ZEAMX ([17]; rate 0.25 kg/ha): 0.0 | Preemergence herbicidal rating IPOHE ([18]; rate 0.125 kg/ha): 0.0 | Preemergence herbicidal rating IPOHE ([18]; rate 0.25 kg/ha): 3.0 | Preemergence herbicidal rating XANST ([19]; rate 0.125 kg/ha): 0.0 | Preemergence herbicidal rating XANST ([19]; rate 0.25 kg/ha): 0.0 | Preemergence herbicidal rating GLXMA ([20]; rate 0.125 kg/ha): 0.0 | Preemergence herbicidal rating GLXMA ([20]; rate 0.25 kg/ha): 1.0 | Preemergence herbicidal rating ABUTH ([21]; rate 0.125 kg/ha): 2.0 | Preemergence herbicidal rating ABUTH ([21]; rate 0.25 kg/ha): 2.0 | Preemergence herbicidal rating CHEAL ([22]; rate 0.125 kg/ha): 6.0 | Preemergence herbicidal rating CHEAL ([22]; rate 0.25 kg/ha): 8.0 | Preemergence herbicidal rating ECHCG ([23]; rate 0.125 kg/ha): 1.0 | Preemergence herbicidal rating ECHCG ([23]; rate 0.25 kg/ha): 2.0 | Preemergence herbicidal rating TRZAW ([24]; rate 0.125 kg/ha): 0.0 | Preemergence herbicidal rating TRZAW ([24]; rate 0.25 kg/ha): 0.0
